# In patent US4265882A, “Sulphur analogs of penicillins having a nucleophile substituted in the 6 and 7 position, respectively” (Massachusetts Institute of Technology, priority 1977, dated 1981):
# Key:
# [1] = literature; cited from earlier work
# [2] = tested on: Bacillus subtillis ATCC 6051; test: Minimum inhibitory concentration in vitro, Bacillus subtillis; type: cell-based; parameters: unit not given here; conditions: free acids tested after removal of ester protective group
# Experimental: (§1) General Procedure for Removing Protective Groups
# (§2) The ester (100-200 mg) is dissolved in approx. 10 ml of 90% HOAc and the solution cooled to 0° before 1-1.5 g of zinc dust is added. The mixture is stirred at 0° for 3-5 hr. Removal of the zinc by filtration through celite into a flask containing 100 ml of ice-H2 O and washing the zinc with methylene chloride (50 ml) yielded a two-phase system. Separation of the organic layer, extraction of the aqueous layer with several methylene chloride-zinc washings, drying (MgSO4) and removal of the solvent under reduced pressure (no heat) afforded the free acid.
# (§3) For purification (if required) the acid was dissolved in CH2 Cl2 and extracted with aqueous NaHCO3. The aqueous layer, after being extracted several times with CH2 Cl2, was cooled with ice and acidified with dilute HCl. Extraction with CH2 Cl2, drying (MgSO4) and removal of the solvent under reduced pressure (no heat) gave the pure acid.
# (§4) A flask, charged with the ester, is submerged in an ice bath 5-10 min. before cold trifluoroacetic acid is added. The solution is stirred at 0° for 30-45 min. and then the solvent removed by distillation under reduced pressure (2-3 mm) with the reaction flask still submerged in the ice bath. The residue is freeze dried from benzene.
# If purification is required, it is done in the same manner as described for removal of the trichloroethyl group (see above).
# The benzhydryl group is removed in the same manner as described for the removal of the t-butyl group, above. After freeze drying the residue was purified in the following manner. The acid was dissolved in methylene chloride and extracted with aqueous NaHCO3. The aqueous layer, after being extracted several times with methylene chloride, was partitioned with methylene chloride, cooled with ice, and acidified with dilute HCl. Extraction with methylene chloride, drying (MgSO4), and removal of the solvent under reduced pressure (no heat) gave the pure acid.
# In order to remove the protective benzyhydryl group from benzyhydryl-6β-(triophene-2-acetylthio)-6α-methoxypenicillanate, the following procedure was found necessary. The ester (70-80 mg) is dissolved in 10 ml of CH2 Cl2 and the solution cooled to -77° (CO2 -acetone) before the addition of 0.5 ml of trifluoroacetic acid. The solution was warmed to approximately -10° (NaCl-H2 O-ice) and stirred at that temperature for 5-6 hr. The solution was cooled to -77° and 75-100 ml of benzene added. After the contents of the flask solidified the acid was isolated by freeze drying and bioassayed without purification.
# The protective groups of the penicillin and cephalosporin esters were removed as described above and the resulting free acids were tested in vitro for bioactivity.
# Sarcina lutea = test: Minimum inhibitory concentration in vitro, Sarcina lutea; type: cell-based; conditions: free acids tested after removal of ester protective group
# Experimental: as §1, §2, §3, §4
# (§5) If purification is required, it is done in the same manner as described for removal of the trichloroethyl group (see above). […]
# [3] = tested on: Staphylococcus aerus (Roche); test: Minimum inhibitory concentration in vitro, Staphylococcus aerus (Roche); type: cell-based; parameters: unit not given here; conditions: free acids tested after removal of ester protective group
# Experimental: as §1, §2, §3, §4, §5
# [4] = tested on: certain resistant staphylococci; conditions: background; cited from earlier work
# [5] = tested on: certain Gram-negative organisms; conditions: background; cited from earlier work
compound,measurement,setting,value
CC1(C)S[C@@H]2[C@@H](OC(=O)COc3ccccc3)C(=O)N2[C@H]1C(=O)O [6α-phenoxyacetoxypenicillanic acid],biological activity,[1],exhibits no biological activity
COC1(SC(=O)Cc2ccccc2)C(=O)N2C(C(=O)OC(C)(C)C)=C(COC(C)=O)CSC21 (stereo not drawn) [tert-Butyl 7β-(phenylacetylthio)-7α-methoxycephalosporanate],Minimum Inhibitory Concentration,[2],< 6.25
same,Minimum Inhibitory Concentration,Sarcina lutea,100 mg/mL
COC1(SC(=O)Cc2cccs2)C(=O)N2C(C(=O)OC(C)(C)C)=C(COC(C)=O)CSC21 (stereo not drawn) [tert-Butyl 7β-(thiophene-2-acetylthio)-7α-methoxycephalosporanate],Minimum Inhibitory Concentration,[2],50
"COC1(SC(=O)OCC(Cl)(Cl)Cl)C(=O)N2C(C(=O)OC(c3ccccc3)c3ccccc3)C(C)(C)SC21 (stereo not drawn) [Benzhydryl 6β-(β,β,β-trichloroethoxycarbothio)6α-methoxypenicillanate]",Minimum Inhibitory Concentration,[2],100
COC(=O)SC1(OC)C(=O)N2C(C(=O)OC(C)(C)C)=C(COC(C)=O)CSC21 (stereo not drawn) [t-Butyl 7β-(methoxycarbothio)-7α-methoxycephalosporanate],Minimum Inhibitory Concentration,[2],50
same,Minimum Inhibitory Concentration,[3],50
same,Minimum Inhibitory Concentration,Sarcina lutea,25 mg/mL
COc1cccc(OC)c1C(=O)N[C@@H]1C(=O)N2[C@@H]1SC(C)(C)[C@@H]2C(=O)O [methicillin],activity against certain resistant staphylococci,[4],good activity
CC1(C)S[C@@H]2[C@H](NC(=O)C(C(=O)O)c3ccccc3)C(=O)N2[C@H]1C(=O)O (some centres unmarked) [carbenicillin],"broadened spectra of activity, Gram-negative organisms",[5],broadened the spectra to activity to include use against certain Gram-negative organisms
CC1(C)S[C@@H]2[C@H](NC(=O)[C@H](N)c3ccccc3)C(=O)N2[C@H]1C(=O)O [ampicillin],"broadened spectra of activity, Gram-negative organisms",[5],broadened the spectra to activity to include use against certain Gram-negative organisms
